From ChEMBL document CHEMBL1135689, “Anthranilic acid amides: a novel class of antiangiogenic VEGF receptor kinase inhibitors” (J Med Chem, 2002) come the findings set out here.

In assay [1] the target is Vascular endothelial growth factor receptor 3 (Homo sapiens, UniProt P35916). Kind of assay: In vitro inhibition of Vascular endothelial growth factor receptor 3 [VEGFR-3(Flt-4)] expressed in baculovirus.
Assay [2] concerns the target Angiopoietin-1 receptor (Homo sapiens, UniProt Q02763). Kind of assay: In vitro inhibition of Tyrosine protein kinase receptor TIE-2 (Tek) expressed in baculovirus.
The target of assay [3] is Cyclin-dependent kinase 1 (Homo sapiens, UniProt P06493). As to the kind of experiment: In vitro inhibition of Cyclin-dependent kinase 1 (CDK-1) expressed in baculovirus.
Chain of Cyclin-dependent kinase 1 (P06493 whole entry): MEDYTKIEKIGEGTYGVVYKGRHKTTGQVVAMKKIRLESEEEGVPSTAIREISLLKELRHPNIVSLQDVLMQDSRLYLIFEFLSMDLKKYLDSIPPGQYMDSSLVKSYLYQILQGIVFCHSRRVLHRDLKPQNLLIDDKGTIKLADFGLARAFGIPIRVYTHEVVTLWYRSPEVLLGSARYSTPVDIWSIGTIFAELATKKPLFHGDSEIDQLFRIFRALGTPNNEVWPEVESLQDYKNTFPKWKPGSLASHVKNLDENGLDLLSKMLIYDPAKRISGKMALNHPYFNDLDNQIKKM
Assay [4] can be described thus: Mean % inhibition of induced angiogenesis by Vascular endothelial growth factor (VEGF) after intraperitoneal dose of 100 mg/kg in mice. To be noted: Mus musculus, ip. The class given is functional.
Assay [5] deals with Insulin-like growth factor 1 receptor (Homo sapiens, UniProt P08069). Kind of assay: In vitro inhibition of Insulin-like growth factor I receptor expressed in baculovirus.
Chain of Insulin-like growth factor 1 receptor (P08069 31-736 limits assumed): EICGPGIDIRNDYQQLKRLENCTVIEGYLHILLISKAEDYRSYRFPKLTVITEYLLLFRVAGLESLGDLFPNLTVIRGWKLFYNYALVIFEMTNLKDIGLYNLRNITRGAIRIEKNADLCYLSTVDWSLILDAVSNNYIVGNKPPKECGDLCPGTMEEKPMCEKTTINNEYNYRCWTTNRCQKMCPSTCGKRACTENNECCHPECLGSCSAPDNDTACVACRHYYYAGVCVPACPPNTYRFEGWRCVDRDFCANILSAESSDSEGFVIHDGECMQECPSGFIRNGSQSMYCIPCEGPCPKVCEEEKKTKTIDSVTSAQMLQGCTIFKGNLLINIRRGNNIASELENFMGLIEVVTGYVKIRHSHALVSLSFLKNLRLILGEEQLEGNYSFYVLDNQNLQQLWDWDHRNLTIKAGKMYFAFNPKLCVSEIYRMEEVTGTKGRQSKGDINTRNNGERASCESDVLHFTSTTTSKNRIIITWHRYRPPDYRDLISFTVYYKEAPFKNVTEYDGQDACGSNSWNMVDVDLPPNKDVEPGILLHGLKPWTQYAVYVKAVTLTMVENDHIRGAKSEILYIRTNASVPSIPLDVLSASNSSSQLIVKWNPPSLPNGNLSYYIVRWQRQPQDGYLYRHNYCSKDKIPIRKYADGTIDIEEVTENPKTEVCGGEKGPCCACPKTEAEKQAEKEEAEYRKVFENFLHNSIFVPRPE
Chain of Insulin-like growth factor 1 receptor (P08069 741-1367 limits assumed): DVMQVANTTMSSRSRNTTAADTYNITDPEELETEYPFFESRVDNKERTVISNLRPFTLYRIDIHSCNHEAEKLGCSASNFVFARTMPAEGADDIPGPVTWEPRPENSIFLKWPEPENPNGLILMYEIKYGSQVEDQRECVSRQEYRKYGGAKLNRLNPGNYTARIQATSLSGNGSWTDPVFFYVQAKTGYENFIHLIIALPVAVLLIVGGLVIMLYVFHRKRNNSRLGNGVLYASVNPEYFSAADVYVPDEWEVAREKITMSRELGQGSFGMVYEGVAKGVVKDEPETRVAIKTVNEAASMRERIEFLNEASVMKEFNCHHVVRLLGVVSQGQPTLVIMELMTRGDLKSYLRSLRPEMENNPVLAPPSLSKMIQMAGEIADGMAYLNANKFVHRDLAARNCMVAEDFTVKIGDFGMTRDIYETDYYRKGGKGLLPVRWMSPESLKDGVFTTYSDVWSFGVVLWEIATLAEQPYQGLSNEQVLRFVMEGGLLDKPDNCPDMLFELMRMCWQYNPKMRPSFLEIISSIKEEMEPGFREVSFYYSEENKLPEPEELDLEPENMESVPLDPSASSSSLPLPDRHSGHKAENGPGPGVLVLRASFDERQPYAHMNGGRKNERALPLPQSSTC
In assay [6] the target is Fibroblast growth factor receptor 1 (Mus musculus) (UniProt P16092). Kind of assay: Mean % inhibition of induced angiogenesis by Heparin-binding growth factor 2 after intraperitoneal dose of 100 mg/kg in mice. Further details: dose 100 mg/kg. The class given is functional, organism-based.
The target in assay [7] is Tyrosine-protein kinase ABL1 (Homo sapiens, UniProt P00519).
Assay [8] is filed under the species Mus musculus.
The species entered for assay [9] is Mus musculus. This is another data set of the same source.
In assay [10] the target is Fibroblast growth factor receptor 1 (Homo sapiens, UniProt P11362).
Chain of Fibroblast growth factor receptor 1 (P11362 whole entry): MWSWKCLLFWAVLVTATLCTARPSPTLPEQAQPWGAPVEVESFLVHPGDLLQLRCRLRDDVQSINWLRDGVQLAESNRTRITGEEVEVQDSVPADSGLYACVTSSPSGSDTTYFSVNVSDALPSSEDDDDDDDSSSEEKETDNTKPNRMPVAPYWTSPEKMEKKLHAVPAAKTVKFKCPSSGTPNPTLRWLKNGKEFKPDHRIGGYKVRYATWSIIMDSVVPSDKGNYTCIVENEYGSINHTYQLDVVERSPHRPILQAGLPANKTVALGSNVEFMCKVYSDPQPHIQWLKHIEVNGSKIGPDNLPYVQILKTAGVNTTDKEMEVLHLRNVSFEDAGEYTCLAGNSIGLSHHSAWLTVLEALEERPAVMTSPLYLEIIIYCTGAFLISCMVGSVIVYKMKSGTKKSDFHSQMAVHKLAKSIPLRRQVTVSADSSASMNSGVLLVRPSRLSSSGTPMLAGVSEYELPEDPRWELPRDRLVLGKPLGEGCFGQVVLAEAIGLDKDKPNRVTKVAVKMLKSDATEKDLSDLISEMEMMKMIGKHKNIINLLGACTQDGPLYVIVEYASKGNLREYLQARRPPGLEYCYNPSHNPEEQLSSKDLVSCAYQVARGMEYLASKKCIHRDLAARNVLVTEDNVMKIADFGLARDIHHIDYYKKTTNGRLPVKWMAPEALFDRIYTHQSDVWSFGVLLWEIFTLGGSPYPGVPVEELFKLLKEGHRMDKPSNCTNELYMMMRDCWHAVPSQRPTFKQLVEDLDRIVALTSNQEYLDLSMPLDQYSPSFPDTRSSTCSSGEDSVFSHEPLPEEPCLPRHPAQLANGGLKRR
Assay [11] is filed under the species Mus musculus. This is another data set of the same source.
The target of assay [12] is Platelet-derived growth factor receptor beta (Homo sapiens, UniProt P09619).
The target of assay [13] is T1, Vascular endothelial growth factor receptor 2 (Homo sapiens, UniProt P35968).
The nature of assay [14]: Mean % inhibition of induced angiogenesis by Vascular endothelial growth factor (VEGF) at a peroral dose of 50 mg/kg in mice. The class given is functional. Conditions: Mus musculus, route oral.
Assay [15] deals with B16. Kind of assay: Mean % inhibition of primary tumor growth in B16 mouse administration. Format: functional.
Assay [16] has as its target T1, Vascular endothelial growth factor receptor 2. The source holds these as a separate data set.
In assay [17] the target is Macrophage colony-stimulating factor 1 receptor (Homo sapiens, UniProt P07333).
Chain of Macrophage colony-stimulating factor 1 receptor (P07333 whole entry): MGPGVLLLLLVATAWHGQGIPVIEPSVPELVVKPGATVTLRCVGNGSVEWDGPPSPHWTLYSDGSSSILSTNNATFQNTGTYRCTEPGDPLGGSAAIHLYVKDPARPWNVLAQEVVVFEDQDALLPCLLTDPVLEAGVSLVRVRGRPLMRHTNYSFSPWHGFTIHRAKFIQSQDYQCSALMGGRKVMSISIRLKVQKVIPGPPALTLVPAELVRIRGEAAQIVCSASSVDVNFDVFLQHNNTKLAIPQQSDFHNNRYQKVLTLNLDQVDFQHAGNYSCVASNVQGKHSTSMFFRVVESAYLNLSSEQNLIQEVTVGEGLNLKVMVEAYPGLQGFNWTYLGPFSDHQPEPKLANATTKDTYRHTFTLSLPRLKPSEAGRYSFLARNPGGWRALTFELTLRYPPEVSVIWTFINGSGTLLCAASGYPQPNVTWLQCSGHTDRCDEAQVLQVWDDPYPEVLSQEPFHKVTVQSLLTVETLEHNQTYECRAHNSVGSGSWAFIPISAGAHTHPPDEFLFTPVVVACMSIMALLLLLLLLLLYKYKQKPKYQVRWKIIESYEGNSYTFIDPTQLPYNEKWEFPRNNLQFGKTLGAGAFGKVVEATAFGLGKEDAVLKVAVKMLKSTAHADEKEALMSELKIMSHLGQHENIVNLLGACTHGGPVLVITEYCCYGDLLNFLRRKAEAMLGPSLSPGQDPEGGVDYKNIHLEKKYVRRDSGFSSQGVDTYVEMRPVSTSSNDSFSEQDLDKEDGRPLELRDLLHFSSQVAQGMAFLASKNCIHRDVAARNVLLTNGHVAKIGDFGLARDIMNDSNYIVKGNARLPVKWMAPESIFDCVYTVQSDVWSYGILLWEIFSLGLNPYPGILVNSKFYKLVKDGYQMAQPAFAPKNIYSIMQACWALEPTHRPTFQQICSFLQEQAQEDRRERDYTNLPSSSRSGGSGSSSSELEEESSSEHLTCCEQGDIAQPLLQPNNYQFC
The species named for assay [18] is Mus musculus. The source holds these as a separate data set.
The target of assay [19] is Hepatocyte growth factor receptor (Homo sapiens, UniProt P08581). Kind of assay: In vitro inhibition of Met proto-oncogene tyrosine kinase (c-Met) expressed in baculovirus.
Assay [20] addresses Proto-oncogene tyrosine-protein kinase Src (Homo sapiens, UniProt P12931).
Assay [21] has as its target Vascular endothelial growth factor receptor 1 (Homo sapiens, UniProt P17948).
Assay [22] deals with Mast/stem cell growth factor receptor Kit (Homo sapiens, UniProt P10721).
Assay [23] concerns B16. As to the kind of experiment: Mean % inhibition of lymph node metastasis in B16 mouse administration. The class given is functional.
In assay [24] the test system is B16. Kind of assay: Mean % inhibition of lymph node metastasis in B16 mouse administration. Format: functional.

Values joined by “and” are separate entries in the source; they are usually repeats but may differ in a detail not shown here. Identical values can stand only once.

Chain of Angiopoietin-1 receptor (Q02763 whole entry): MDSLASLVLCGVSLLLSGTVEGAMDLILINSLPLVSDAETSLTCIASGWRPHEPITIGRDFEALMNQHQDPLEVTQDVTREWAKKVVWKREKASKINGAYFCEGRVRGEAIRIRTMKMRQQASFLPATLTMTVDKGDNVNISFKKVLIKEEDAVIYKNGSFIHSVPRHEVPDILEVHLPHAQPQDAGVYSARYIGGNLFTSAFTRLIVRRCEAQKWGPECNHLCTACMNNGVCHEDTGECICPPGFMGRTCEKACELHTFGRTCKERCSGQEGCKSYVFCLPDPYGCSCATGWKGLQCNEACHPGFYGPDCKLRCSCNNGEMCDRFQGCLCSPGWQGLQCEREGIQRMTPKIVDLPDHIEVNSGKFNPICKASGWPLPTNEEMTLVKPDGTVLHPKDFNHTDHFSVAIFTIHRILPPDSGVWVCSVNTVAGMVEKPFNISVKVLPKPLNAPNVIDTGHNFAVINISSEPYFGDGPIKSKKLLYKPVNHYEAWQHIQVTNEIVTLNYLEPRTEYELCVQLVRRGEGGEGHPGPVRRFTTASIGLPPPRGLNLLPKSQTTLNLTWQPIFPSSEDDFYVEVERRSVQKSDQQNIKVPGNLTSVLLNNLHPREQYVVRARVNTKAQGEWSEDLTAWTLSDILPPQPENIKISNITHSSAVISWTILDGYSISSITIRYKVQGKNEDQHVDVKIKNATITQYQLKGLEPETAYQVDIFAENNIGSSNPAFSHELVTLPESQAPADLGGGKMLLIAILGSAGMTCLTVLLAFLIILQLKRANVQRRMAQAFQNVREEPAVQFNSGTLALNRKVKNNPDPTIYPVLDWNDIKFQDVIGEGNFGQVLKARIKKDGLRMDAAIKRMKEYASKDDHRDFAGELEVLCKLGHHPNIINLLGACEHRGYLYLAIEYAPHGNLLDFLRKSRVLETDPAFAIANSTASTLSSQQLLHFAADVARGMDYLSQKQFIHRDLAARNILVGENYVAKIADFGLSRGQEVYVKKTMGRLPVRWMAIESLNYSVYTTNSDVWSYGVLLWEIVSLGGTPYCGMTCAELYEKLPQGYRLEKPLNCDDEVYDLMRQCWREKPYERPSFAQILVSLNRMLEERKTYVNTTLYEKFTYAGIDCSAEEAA

Broadly, the IC50 is the concentration that inhibits the measured activity by half. Low readings indicate greater potency, high ones weaker potency. The inhibition in vivo is the drop in the measured response relative to a control, in per cent. A high value points to a strong effect. Broadly, the inhibition is the relative decrease from the control value, in per cent. Lower therefore signals little suppression. With `Cc1cc(C)c(/C=C2\C(=O)Nc3ccccc32)[nH]1` [SEMAXANIB], the IC50 was 0.05 µM in assay [1], greater than 10 µM in assay [2], greater than 10 µM in [3] and greater than 10 µM in assay [5]. This molecule also displayed an inhibition in vivo at 100 mg/kg in [4] of 65%. In assay [6], this molecule yielded an inhibition of 87%.

By Inhibition is commonly meant how much of the control response was suppressed. As to `O=C(Nc1cccc(-c2cncc3ccccc23)c1)c1ccccc1NCc1ccncc1`, the IC50 in assay [1] is 0.052 µM; in assay [2] it was 6.8 µM; in assay [3], greater than 10 µM; in assay [7], 5.33 µM; in assay [10], 5.1 µM; in assay [12], 0.357 µM. The IC50 was 0.00116 µM in assay [13]; 6.4 µM in assay [5]; 0.009 µM in assay [16]; 0.099 µM in [17]; greater than 10 µM in [19]; greater than 10 µM in [20]. Moreover, the IC50 in assay [21] came to 0.13 µM; in assay [22] it was 0.105 µM. Further, the Plasma concentration in assay [8] was 1.6 µM l-1; in assay [9], 1.9 µM l-1; in assay [11] it was 3.4 µM l-1; in [18] it was 1.9 µM l-1. This molecule had an inhibition in vivo at 50 mg/kg in assay [14] of 100%. Moreover, the Inhibition in assay [15] is 39% and 73%.

Take `O=C(Nc1cccc(C(F)(F)F)c1)c1ccccc1NCc1ccncc1`: the IC50 in assay [2] is greater than 10 µM; in assay [3], greater than 10 µM; in [7], 2.82 µM; in assay [10], greater than 10 µM; in assay [5], greater than 10 µM; in assay [17], 0.38 µM. For the same molecule, the results for the IC50 in assay [19], in assay [20] and in assay [22] were greater than 10 µM, greater than 10 µM and 0.236 µM, respectively. This molecule showed an inhibition in vivo at 50 mg/kg in assay [14] of 84%. Also, the Inhibition in assay [23] came out at 85%; in assay [15], 44%.

Regarding `COc1cc2/c(=N/c3ccc(Br)cc3F)nc[nH]c2cc1OCC1CCN(C)CC1` [VANDETANIB], at 50 mg/kg the inhibition in vivo in assay [14] was 71%. Besides, the values for the Inhibition in [24] and in assay [15] were 61% and 60%, respectively.

Consider `Clc1ccc(Nc2nnc(Cc3ccncc3)c3ccccc23)cc1.O=C(O)CCC(=O)O`, for which the inhibition in vivo at 50 mg/kg in assay [14] stood at 68%. The Inhibition in [23] was 55%; in assay [15] it was 34%.
